Read-outs that look alike come from different tables or passages of the source.
Assays:
[1] = system: patients with T-cell lymphoma; assay: Hematological toxicity: percentage decrease in platelet count versus FK228 AUC (sigmoid maximum effect model); type: in vivo, human; settings: P<0.001, FIG. 1
Procedure: Complete blood cell counts with differential are obtained immediately prior to FK228 administration and on days 2, 9, and 16 to evaluate FK228-related myelosuppression. Multiple surface electrocardiograms (ECGs) are obtained immediately before FK228 administration, and at 4 hours after the start of FK228 administration, to evaluate the ability of FK228 to delay cardiac repolarization. This effect is manifested on the ECG as prolongation of the QT interval. The QT interval is transformed into the heart-rate independent corrected value known as the QTc interval. […]
Relationships between various exposure measures, for example, plasma AUC, and hematological and cardiac toxicity are evaluated by sigmoid maximum-effect models. […] Hematological pharmacodynamics are evaluated by analysis of the absolute nadir values of platelet counts or the relative thrombocytopenia, that is, the percent decrease in platelet count. […] Models are evaluated for goodness of fit by minimization of sums of the squared residuals and by reduction of the estimated coefficient of variation for fitted parameters. Significance of the relationships are assessed by construction of contingency tables with subsequent chi-squared analysis.

clinical = settings: human, plasma, intravenous; for Vd: Vss, volume of distribution at steady-state
[2] = system: patients with T-cell lymphoma; assay: Baseline corrected QTc interval (ΔQTc) on ECG after FK228 (romidepsin) treatment, by ABCB1 genotype; type: in vivo, human
Procedure: Complete blood cell counts with differential are obtained immediately prior to FK228 administration and on days 2, 9, and 16 to evaluate FK228-related myelosuppression. Multiple surface electrocardiograms (ECGs) are obtained immediately before FK228 administration, and at 4 hours after the start of FK228 administration, to evaluate the ability of FK228 to delay cardiac repolarization. This effect is manifested on the ECG as prolongation of the QT interval. The QT interval is transformed into the heart-rate independent corrected value known as the QTc interval. Prolongation of the QTc interval is the electrocardiographic finding associated with increased susceptibility to the development of cardiac arrythmias, including ventricular arrhythmias such as Torsade de Pointes. Because measurement of the baseline value is a factor that critically influences the observed variability in the mean QTc interval, values are computed as the mean of multiple ECGs to enhance the precision of the measurement. This computation is performed by collecting drug-free ECGs on three or more different days. The on-study time point for obtaining an ECG are selected to coincide with the maximum plasma concentration of FK228, as recommended in the preliminary FDA concept paper: The Clinical Evaluation Of Qt/Qtc Interval Prolongation And Proarrhythmic Potential For Non-Antiarrhythmic Drugs (Nov. 15, 2002) available at: http://www.fda.gov/ohrms/dockets/ac/03/briefing/pubs %5Cprelim.pdf.
Relationships between various exposure measures, for example, plasma AUC, and hematological and cardiac toxicity are evaluated by sigmoid maximum-effect models. […] Hematological pharmacodynamics are evaluated by analysis of the absolute nadir values of platelet counts or the relative thrombocytopenia, that is, the percent decrease in platelet count. Data are fitted to a sigmoid maximum-effect model based on the modified Hill equation, as follows: E=E0+Emax×[(KP^γ)/(KP^γ+KP50^γ)]. In this equation, E0 is the minimum reduction possible, Emax is the maximum response (fixed to a value of 100), KP is the pharmacokinetic parameter of interest, KP50 the value of the pharmacokinetic parameter predicted to result in half of the maximum response, and γ is the Hill constant, which describes the sigmoidicity of the curve. Models are evaluated for goodness of fit by minimization of sums of the squared residuals and by reduction of the estimated coefficient of variation for fitted parameters. Significance of the relationships are assessed by construction of contingency tables with subsequent chi-squared analysis.
All data are reported as median values with range, unless specified otherwise. Interindividual pharmacokinetic variability is calculated as the coefficient of variation, and expressed as a percentage. Genotype-frequency analysis of Hardy-Weinberg equilibrium is carried out using Clump version 1.9. The linkage between each pair of SNPs is determined in terms of the classical statistic D′. The absolute value for D′ (|D′|) of 1 denotes complete linkage disequilibrium, while a value of 0 denotes complete linkage equilibrium. The effects of the variant genotypes on ΔQTc, relative thrombocytopenia, dose-normalized AUC, apparent oral clearance, half-life, volume of distribution at steady-state are evaluated statistically with the nonparametric Kruskal-Wallis test. A post-hoc distribution-free multiple comparison procedure is performed using the Dunn test with Bonferroni correction to test pairs of median observations. All statistical analyses are performed using the NCSS software program (version 2001; NCSS, Kaysville, Utah). The a priori level of significance is set at 0.05.

interindividual variability in drug clearance, percent coefficient of variation (Example 1, 42 patients): approximately 72%
interindividual variability in drug clearance, percent coefficient of variation (Example 2): approximately 72%
clearance (clinical; Clearance, All (N = 74), median): 238 mL/min
clearance (clinical; Clearance, Group 1 (N = 45), median): 252 mL/min
clearance (clinical; Clearance, Group 2 (N = 29), median): 232 mL/min
clearance (clinical; FK228 clearance, Example 1, all 42 patients combined, 4-hour infusion 14 or 18 mg/m^2, mean ± standard deviation): 292 mL/min
half-life (clinical; T1/2, half-life of the terminal phase, All (N = 74), median): 6 h
half-life (clinical; T1/2, half-life of the terminal phase, Group 1 (N = 45), median): 6.8 h
half-life (clinical; T1/2, half-life of the terminal phase, Group 2 (N = 29), median): 3.8 h
Vd (clinical; All (N = 74), median): 93.6 L
Vd (clinical; Group 1 (N = 45), median): 129 L
Vd (clinical; Group 2 (N = 29), median): 64.9 L
half-life (clinical; terminal half-life, Example 1, all 42 patients combined, 4-hour infusion 14 or 18 mg/m^2, mean ± standard deviation): 7.23 ± 3 h
SMILES: C/C=C1\NC(=O)[C@H]2CSSCC/C=C/[C@H](CC(=O)N[C@H](C(C)C)C(=O)N2)OC(=O)[C@H](C(C)C)NC1=O [FK228, (E)-(1S,4S,10S,21R)-7-[(Z)-ethylidene]-4,21-diisopropyl-2-oxa-12,13-dithia-5,8,20,23-tetraazabicyclo [8,7,6]-tricos-16-ene-3,6,19,22-pentanone]
association of AUC of FK228 with percentage decrease in platelet count [1]: weakly associated
ΔQTc at four hours ([2]; Example 1, ABCB1 2677GA genotype, n=1): 17.8 ms
ΔQTc at four hours, median ([2]; Example 1, ABCB1 2677GG genotype, n=10): 18.3 ms
ΔQTc at four hours, median ([2]; Example 1, ABCB1 2677GT genotype, n=14): 16.5 ms
ΔQTc at four hours, median ([2]; Example 1, ABCB1 2677T/T genotype, n=4): -5 ms
ΔQTc at four hours, median ([2]; Example 1, carriers of the heterozygote diplotype (2677/3435), n=7): 11.3 ms
ΔQTc at four hours, median ([2]; Example 1, carriers of the homozygote diplotype (2677/3435), n=19): 18.5 ms
ΔQTc at four hours, median ([2]; Example 1, homozygous for the ABCB1 2677TT/3435TT diplotype, n=3): -5.0 ms
ΔQTc at 4 hours, median ([2]; group 1, 0 reference alleles at both ABCB1 2677G>T/A and 3435C>T loci, N=4): -1 ms
ΔQTc at 4 hours, median ([2]; group 1, no reference alleles at the ABCB1 2677G>T/A locus, N=6): -2.0 ms
ΔQTc at 4 hours, median ([2]; group 1, one or more reference alleles at the ABCB1 2677G>T/A locus, N=32): 18.2 ms
ΔQTc at 4 hours, median ([2]; group 1, single reference allele at either ABCB1 2677G>T/A or 3435C>T locus, N=6): 9.7 ms
ΔQTc at 4 hours, median ([2]; group 1, two or more reference allele copy numbers at ABCB1 2677G>T/A and 3435C>T loci, N=28): 18.5 ms
ΔQTc at 4 hours, median ([2]; group 2, 0 or 1 reference alleles at ABCB1 2677G>T/A, N=14): 4 ms
ΔQTc at 4 hours, median ([2]; group 2, more than 1 reference allele at ABCB1 2677G>T/A, N=4): 24.5 ms

From US20090325156A1, “MATERIALS AND METHODS FOR ABCB1 POLYMORPHIC VARIANT SCREENING, DIAGNOSIS, AND TREATMENT” (Government of the United States of America, as Represented …, priority 2005, published 2009)
